This note sets out measurements from patent US8609836B2, “4-aryl-2-anilino-pyrimidines” (Janssen Pharmaceutica NV, priority 2008, dated 2013).

Where only a bound is given, the exact number is not on record here.

Common to all, as to format: biochemical
Test [1] concerns the target PLK4 (h) (Homo sapiens, UniProt O00444). The test is described as follows: PLK-4 human kinase inhibition, scintillation proximity assay (SPA). Conditions: read-out: PLK4 pIC50 (converted). (SPA uses beads or plates that emit light when radiolabelled molecules are held near them.)
Test [2] addresses PLK1 T210D (h) (Homo sapiens, UniProt P53350, T210D). The experiment in a line: PLK1 human kinase inhibition, SPA. To be noted: read-out: PLK1 pIC50 (converted). The method in brief:
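Radiometric SPA with PLK1 T210D (0.125 ng/ml) in 50 mM Hepes pH 8.0, 2 mM MnCl2, 1 mM DTT, 2 μM biotinylated peptide, 0.1 μM ATP plus 2 nM [γ-33P]ATP. 40 min at room temperature, EDTA stop. Phosphorylated substrate captured on streptavidin PVT beads, scintillation imaged.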

Test [3] addresses AuroraB (h) (Homo sapiens, UniProt Q96GD4). The experiment in a line: Aurora-B human kinase inhibition, SPA. To be noted: read-out: AuroraB pIC50 (converted). The method in brief:
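SPA with biotinylated peptide (3 μM) in 60 mM Hepes pH 7.5, Mg/Mn 3 mM each, 0.5 μM ATP plus [γ-33P]ATP, AuroraB at 0.5 μg/ml. The reaction runs 60 min at room temperature and is stopped with EDTA and streptavidin PVT beads. 33P-substrate is read by scintillation imaging.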

Chain of PLK1 T210D (h) (P53350 whole entry T210D): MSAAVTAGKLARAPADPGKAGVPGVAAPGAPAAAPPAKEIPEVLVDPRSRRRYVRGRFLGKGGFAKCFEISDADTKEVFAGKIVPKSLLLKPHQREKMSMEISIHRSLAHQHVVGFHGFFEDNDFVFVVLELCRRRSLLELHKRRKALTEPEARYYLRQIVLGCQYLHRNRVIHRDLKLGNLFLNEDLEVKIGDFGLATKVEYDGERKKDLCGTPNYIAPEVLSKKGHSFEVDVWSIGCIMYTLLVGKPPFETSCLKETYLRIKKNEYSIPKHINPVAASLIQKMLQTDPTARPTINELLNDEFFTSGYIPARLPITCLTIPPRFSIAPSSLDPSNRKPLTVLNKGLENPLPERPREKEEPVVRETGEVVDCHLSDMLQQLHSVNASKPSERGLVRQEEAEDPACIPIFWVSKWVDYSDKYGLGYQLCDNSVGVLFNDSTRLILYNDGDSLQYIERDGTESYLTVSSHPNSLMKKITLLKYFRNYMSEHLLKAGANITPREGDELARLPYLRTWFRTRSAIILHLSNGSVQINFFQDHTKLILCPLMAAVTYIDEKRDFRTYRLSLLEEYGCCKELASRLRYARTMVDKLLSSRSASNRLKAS
Chain of AuroraB (h) (Q96GD4 whole entry): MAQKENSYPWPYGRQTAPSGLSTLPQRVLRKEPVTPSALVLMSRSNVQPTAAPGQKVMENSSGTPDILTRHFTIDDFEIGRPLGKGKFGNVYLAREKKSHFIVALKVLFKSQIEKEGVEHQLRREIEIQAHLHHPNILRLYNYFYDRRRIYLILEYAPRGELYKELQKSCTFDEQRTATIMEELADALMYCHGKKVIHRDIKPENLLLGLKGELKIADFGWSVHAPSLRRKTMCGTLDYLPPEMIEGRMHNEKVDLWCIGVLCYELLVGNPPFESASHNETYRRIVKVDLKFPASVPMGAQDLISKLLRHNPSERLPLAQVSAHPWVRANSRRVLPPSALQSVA
Chain of PLK4 (h) (O00444 whole entry): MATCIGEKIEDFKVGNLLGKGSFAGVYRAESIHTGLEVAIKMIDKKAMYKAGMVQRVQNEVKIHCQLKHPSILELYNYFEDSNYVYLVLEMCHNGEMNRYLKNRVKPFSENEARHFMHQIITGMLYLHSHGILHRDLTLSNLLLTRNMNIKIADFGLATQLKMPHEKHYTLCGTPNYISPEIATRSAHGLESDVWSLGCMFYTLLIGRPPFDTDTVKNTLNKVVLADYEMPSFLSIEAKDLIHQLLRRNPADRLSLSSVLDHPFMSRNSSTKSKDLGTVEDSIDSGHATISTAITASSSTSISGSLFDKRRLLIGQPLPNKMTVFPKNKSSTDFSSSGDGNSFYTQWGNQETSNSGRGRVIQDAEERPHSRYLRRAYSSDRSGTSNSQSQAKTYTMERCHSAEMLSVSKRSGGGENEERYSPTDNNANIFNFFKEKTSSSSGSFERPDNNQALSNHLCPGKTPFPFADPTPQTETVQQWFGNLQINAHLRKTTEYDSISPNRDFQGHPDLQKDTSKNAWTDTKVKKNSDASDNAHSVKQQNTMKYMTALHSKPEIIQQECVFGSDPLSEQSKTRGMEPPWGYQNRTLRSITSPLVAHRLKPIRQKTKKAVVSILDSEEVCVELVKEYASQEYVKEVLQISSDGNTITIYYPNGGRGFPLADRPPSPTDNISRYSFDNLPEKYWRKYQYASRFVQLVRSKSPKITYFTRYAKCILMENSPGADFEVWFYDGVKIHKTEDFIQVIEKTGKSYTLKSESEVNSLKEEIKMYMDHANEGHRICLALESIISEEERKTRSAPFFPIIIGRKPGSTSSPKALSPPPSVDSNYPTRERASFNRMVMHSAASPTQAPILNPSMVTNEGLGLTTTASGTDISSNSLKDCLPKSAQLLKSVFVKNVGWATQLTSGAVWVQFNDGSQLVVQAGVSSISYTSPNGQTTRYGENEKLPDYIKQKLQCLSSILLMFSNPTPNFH

`COc1cc2cc(c1OC)CN1CCC[C@H]1C(=O)NCc1cccc(c1)-c1ccnc(n1)N2` [Compound 23]: the IC50 in test [1] was 0.0741 µM; in test [2] it was over 10 µM; in test [3], over 10 µM.
As for `O=C1NCc2cccc(c2)-c2ccnc(n2)Nc2ccc(N3CCOCC3)c(c2)CN[C@H]1Cc1ccccc1` [Compound 18], the IC50 was 0.646 µM in test [1], over 10 µM in test [2] and over 10 µM in test [3].
On to `O=C1NCc2cccc(c2)-c2ccnc(n2)Nc2ccc(cc2)CN2C[C@H](O)C[C@@H]12` [Compound 55], for which the IC50 in test [1], in test [2] and in test [3] was over 10 µM throughout.
`CN1CCNC(=O)[C@@H]2CCCN2Cc2cc(cc(N3CCOCC3)c2)Nc2nccc(n2)-c2ccc(cc2)C1` [Compound 154]: the results for the IC50 in test [1], in test [2] and in test [3] were 0.813 µM, over 10 µM and over 10 µM, respectively.
For `O=C1NCc2cccc(c2)-c2ccnc(n2)Nc2cc(ccc2Cl)CN2C[C@H](O)C[C@@H]12` [Compound 52], the IC50 in test [1], in test [2] and in test [3] was over 10 µM each time.
Regarding `COc1cc2cc(c1OC)CN1CCC[C@H]1C(=O)N(C)CCN(C)c1cc(ccn1)-c1ccnc(n1)N2` [Compound 17], the IC50 in test [1] was 2.69 µM; in test [2], over 10 µM; in test [3], over 10 µM.
Regarding `O=C1NCc2cccc(c2)-c2ccnc(n2)Nc2ccc(N3CCOCC3)c(c2)CN2CCC1CC2` [Compound 95], the results for the IC50 in test [1], in test [2] and in test [3] were 6.61 µM, over 10 µM and over 10 µM, respectively.
For `CN1CCC(NC(=O)c2ccc3cc2CN2CCC[C@H]2C(=O)NCc2cccc(c2)-c2ccnc(n2)N3)CC1` [Compound 47], the values for the IC50 in test [1], in test [2] and in test [3] were 0.646 µM, over 10 µM and over 10 µM, respectively.
On to `O=C1NCc2ccc(cc2)-c2ccnc(n2)Nc2ccc(N3CCOCC3)c(c2)CN2C[C@H](O)C[C@@H]12` [Compound 56], for which the IC50 is about 10 µM in test [1], over 10 µM in test [2] and over 10 µM in test [3].
For `C[C@@H]1NCCc2cccc(c2)-c2ccnc(n2)Nc2ccc(N3CCOCC3)c(c2)CNC1=O` [Compound 100], the IC50 in test [1] was 1.15 µM; in test [2] it was over 10 µM; in test [3] it was over 10 µM.
`CC(C)Nc1cc2cc(c1)Nc1nccc(n1)-c1ccc(cc1)CN(C)CCCNC(=O)[C@@H]1CCCN1C2` [Compound 151]: the IC50 in test [1] was 0.646 µM; in test [2], over 10 µM; in test [3] it was over 10 µM.
Regarding `C[C@@H]1NCc2ccc(cc2)Nc2nccc(n2)-c2cccc(c2)CNC1=O` [Compound 190], the IC50 in test [1], in test [2] and in test [3] was over 10 µM throughout.
Take `O=C1NCc2cccc(c2)-c2ccnc(n2)Nc2ccc(cc2)CN2CCC[C@@H]12` [Compound 54]: the IC50 in test [1], in test [2] and in test [3] was over 10 µM each time.
With `COc1cc2cc(c1)Nc1nccc(n1)-c1ccc(cc1)CN(C)CCNC(=O)C1CCN(CC1)C2` [Compound 62], the values for the IC50 in test [1], in test [2] and in test [3] were 0.871 µM, over 10 µM and over 10 µM, respectively.
Consider `O=C1CN2CCN(CC2)Cc2cc(ccc2N2CCOCC2)Nc2nccc(n2)-c2ccc(cc2)CN1` [Compound 194], for which the figures for the IC50 in test [1], in test [2] and in test [3] were 1.12 µM, over 10 µM and over 10 µM, respectively.
Turning to `O=C1NCc2cccc(c2)-c2ccnc(n2)Nc2cc(ccc2Cl)CN2CCC[C@@H]12` [Compound 51], the IC50 in test [1], in test [2] and in test [3] was over 10 µM in each case.
In the case of `CN1CCNC(=O)[C@@H]2CCCN2Cc2cccc(c2)Nc2nccc(n2)-c2ccc(cc2)C1` [Compound 160], the figures for the IC50 in test [1], in test [2] and in test [3] were 1.55 µM, over 10 µM and over 10 µM, respectively.
Turning to `O=C(NC1CCOCC1)c1cc2cc(c1)Nc1nccc(n1)-c1cccc(c1)CNC(=O)[C@@H]1CCCN1C2` [Compound 37], the IC50 is 0.245 µM in test [1], over 10 µM in test [2] and 4.9 µM in test [3].
Take `COc1cc2cc(c1)Nc1nccc(n1)-c1ccc(OC)c(c1)CN(C)CCNC(=O)CN1CCN(CC1)C2` [Compound 127]: the results for the IC50 in test [1], in test [2] and in test [3] were 0.813 µM, over 10 µM and 2 µM, respectively.
On to `COc1ccc2cc1CN(C)CCNC(=O)[C@@H]1CCCN1Cc1cc(cc(N3CCOCC3)c1)Nc1nccc-2n1` [Compound 152], for which the values for the IC50 in test [1], in test [2] and in test [3] were 0.692 µM, over 10 µM and 7.94 µM, respectively.
Take `CN1CCNC(=O)CN2CCN(CC2)Cc2cccc(c2)Nc2nccc(n2)-c2ccc(cc2)C1` [Compound 134]: the IC50 is 1.62 µM in test [1], over 10 µM in test [2] and over 10 µM in test [3].
Regarding `O=C1NCc2cc(ccc2N2CCOCC2)Nc2nccc(n2)-c2cccc(c2)CCCN2CCC[C@@H]12` [Compound 149], the IC50 is 0.813 µM in test [1], over 10 µM in test [2] and 11 µM in test [3].
As for `COc1ccc2cc1CN(C)CCNC(=O)C1CCN(CC1)Cc1cc(NCCc3ccccc3)cc(c1)Nc1nccc-2n1` [Compound 74], the IC50 is 2.95 µM in test [1], over 10 µM in test [2] and over 10 µM in test [3].
`COc1ccc2cc1CN(C)CCCNC(=O)[C@H](CO)NCc1cccc(c1)Nc1nccc-2n1` [Compound 118]: the IC50 in test [1] was 3.24 µM; in test [2], over 10 µM; in test [3], 6.61 µM.
Take `COc1ccc2cc1CN(C)CCNC(=O)CN1CCN(CC1)Cc1cc(NCCc3ccccc3)cc(c1)Nc1nccc-2n1` [Compound 138]: the IC50 in test [1] was 2.14 µM; in test [2], over 10 µM; in test [3] it was over 10 µM.
With `C[C@@H]1NCc2ccc(Cl)c(c2)Nc2nccc(n2)-c2cccc(c2)CNC1=O` [Compound 186], the figures for the IC50 in test [1], in test [2] and in test [3] were 1.02 µM, over 10 µM and over 10 µM, respectively.
As to `O=C1CN2CCN(CC2)Cc2cccc(c2)Nc2nccc(n2)-c2cccc(c2)CN1` [Compound 196], the IC50 in test [1], in test [2] and in test [3] was over 10 µM in each case.
In the case of `C[C@@H]1NCc2cccc(c2)Nc2nccc(n2)-c2cccc(c2)CNC1=O` [Compound 184], the values for the IC50 in test [1], in test [2] and in test [3] were 0.776 µM, over 10 µM and over 10 µM, respectively.
On to `O=C1CN2CCN(CC2)Cc2cc(ccc2N2CCOCC2)Nc2nccc(n2)-c2cccc(c2)OCCN1` [Compound 102], for which the IC50 is 0.794 µM in test [1], over 10 µM in test [2] and over 10 µM in test [3].
Consider `COc1ccc2cc1CN(C)CCNC(=O)[C@@H]1CCCN1Cc1cc(cc(NC(C)C)c1)Nc1nccc-2n1` [Compound 165], for which the IC50 is 2.82 µM in test [1], over 10 µM in test [2] and over 10 µM in test [3].
Turning to `CC(C)Nc1cc2cc(c1)Nc1nccc(n1)-c1ccc(cc1)CN(C)CCCNC(=O)CN1CCN(CC1)C2` [Compound 131], the IC50 in test [1] was 1.26 µM; in test [2] it was over 10 µM; in test [3] it was over 10 µM.
In the case of `COc1cc2cc(c1)Nc1nccc(n1)-c1ccc(OC)c(c1)CN(C)CCNC(=O)[C@H](CO)NC2` [Compound 107], the IC50 is 0.589 µM in test [1], over 10 µM in test [2] and 2.04 µM in test [3].
The corresponding values for `O=C1CN2CCN(CC2)Cc2ccc(Cl)c(c2)Nc2nccc(n2)-c2cccc(c2)CN1` [Compound 195] are over 10 µM, over 10 µM and over 10 µM.
Consider `COc1cc2cc(c1)Nc1nccc(n1)-c1ccc(OC)c(c1)CN(C)CCNC(=O)C1CCN(CC1)C2` [Compound 67], for which the figures for the IC50 in test [1], in test [2] and in test [3] were 1.51 µM, over 10 µM and 5.13 µM, respectively.
Turning to `COc1cc2cc(c1)Nc1nccc(n1)-c1ccc(OC)c(c1)CN(C)CCNC(=O)[C@@H]1CCCN1C2` [Compound 162], the IC50 is 2.04 µM in test [1], over 10 µM in test [2] and 6.61 µM in test [3].
Consider `C[C@@H]1NCc2cccc(c2)-c2ccnc(n2)Nc2ccc(N3CCOCC3)c(c2)CNC1=O` [Compound 101], for which the figures for the IC50 in test [1], in test [2] and in test [3] were 1.82 µM, over 10 µM and over 10 µM, respectively.
With `COc1ccc2cc1CN(C)CCNC(=O)[C@@H]1CCCN1Cc1cc(NCCc3ccccc3)cc(c1)Nc1nccc-2n1` [Compound 163], the values for the IC50 in test [1], in test [2] and in test [3] were 2.45 µM, over 10 µM and over 10 µM, respectively.
In the case of `CC(C)Nc1cc2cc(c1)Nc1nccc(n1)-c1ccc(cc1)CN(C)CCCNC(=O)C1CCN(CC1)C2` [Compound 65], the IC50 in test [1] is 1.23 µM; in test [2], over 10 µM; in test [3], over 10 µM.
On to `O=C1NCc2cccc(c2)-c2ccnc(n2)Nc2cccc(c2)CN2CCC1CC2` [Compound 124], for which the IC50 in test [1] was 8.71 µM; in test [2] it was over 10 µM; in test [3], over 10 µM.
